Consider 13 compounds from US11939340B2, “CDK inhibitors and their use as pharmaceuticals” (Prelude Therapeutics Incorporated, priority 2022, dated 2024).

What is called IC50 is the concentration that inhibits the measured activity by half.

Structures are written as SMILES. A value given as a limit tells only on which side of the number the result lay.

The target of experiment [1] is T1, CDK4/Cyclin D1 (Homo sapiens, UniProt P11802).
T1 construct: purchased ProQinase; host or cells: insect cell
Briefly: CDK4/CyclinD1 Enzymatic Activity Assay (TR-FRET). It counts as biochemical. The note with it: CDK4/CyclinD1 1 nM, ATP 2 mM, read-out: CDK4_D1 IC50. Here is the method: CDK4/CyclinD1 Enzymatic Activity Assay
The inhibitory activity of compounds was evaluated in vitro using TR-FRET assay with white 384-well low volume microplate (Greiner Bio-One). CDK4/Cyclin D1 catalyzed phosphorylation of peptide in the presence and absence of compounds was measured and used in IC50 determination. Recombinant protein complex CDK4/Cyclin D1, expressed from insect cell, was purchased from ProQinase. Testing compounds were dissolved in DMSO at 1 mM and tested in 9-dose IC50 mode. The reaction mixture was prepared by mixing CDK4/CyclinD1 (1 nM final), ULight-4E-BP1 (100 nM final, Perkinelmer, TRF0128-D), and ATP (2 mM final) in assay buffer (20 mM of HEPES pH 7.4, 1 mM of EGTA, 0.05% BSA, 0.005% Tween 20, and 1 mM TCEP). The compound of interest in DMSO was added to each well in 3-fold serial dilution by the dispenser (TECAN D300E) to make a 9.9 μL of reaction mixture. After 20 minutes preincubation at room temperature, 0.1 μL MgCl2 (10 mM final) was added to initiate the reaction. Following a 45 minute incubation at 37° C., the reaction was stopped by addition of 2 μL of quenching buffer consisting of Lance detection buffer (Perkinelmer CR97-100C), LANCE Ultra Europium-anti-P-4E-BP1 (Perkinelmer, TRF0216-D), EDTA, and incubated at room temperature for additional 60 minutes in dark. The reaction signal was measured by Envision multimode plate reader (PerkinElmer, 2102-0010). IC50 values were determined by fitting the data to the standard 4 parameters with Hill Slope using GraphPad Prism software.
On the technique in general: In TR-FRET formats the signal depends on donor and acceptor labels being close together.

Experiment [2] concerns pRB in OVCAR3 cells. The experiment is described as follows: pRB ICW Assay in OVCAR3 Cells. Format: cell-based. The following applies: Homo sapiens, OVCAR-3, incubated with compound for 2 hours, read-out: OVCAR3 p-RB ICW IC50. Here is the method:
pRB ICW Assay in OVCAR3 Cells
OVCAR3 cells were maintained in RPMI (Corning, Catalog #: 10-040-CV) supplemented with 10% v/v FBS (Gibco, Catalog #: 26140-079), 1% v/v Penicillin Streptomycin (Gibco, Catalog #15140-122.) OVCAR3 cells grown at log phase were trypsinized, counted, and resuspended in fresh medium to reach a final density of 6.7e4 cells/mL and 75 μL of culture were dispensed into a 384-well plate (Falcon, cat #353962) using a Multidrop Combi dispenser (Thermo Scientific). The next day, compounds were dispensed as a 9-point, ½ log serial dilution using a Tecan digital dispenser (D300e), and cells were incubated with compound for 2 hours in a humidified incubator at 37° C. A reference compound at a final concentration of 10 μM was used as a control for maximum inhibition. Each compound was tested in duplicates for each experiment. At the end of the incubation, 25 μL of 16% paraformaldehyde (Electron Microscopy, cat #15710) was slowly added to each well and the plate was incubated at room temperature (RT) for 30 minutes to fix cells. Cells were then permeabilized by incubating with 50 μL/well of wash buffer (lx PBS with 0.1% Triton X-100) 5×5 minutes, followed by 1 hour blocking with 30 μL/well of Odyssey blocking buffer (Li—COR, cat #927-40000), at RT. Anti-phosphor RB antibody (Cell signaling 8516S) was diluted 1:1000 in Odyssey blocking buffer and 20 μL was added to all wells and incubated overnight in 4° C. with gently rocking. The next day, cells were washed 5×5 min with 50 μL/well of wash buffer, followed with 1 hour incubation with secondary antibody and DRAQ5 diluted in Odyssey blocking buffer (1:500 dilution for secondary antibody and 1:2000 dilution for DRAQ5), 5×5 min washes, and one last wash with water. Plates were dried in 37° C. oven for 5 minutes and scanned using Li—COR Odyssey CLx imaging system to acquire intensities at 700 and 800 nm channels.

Experiment [3] concerns the target CDK2/Cyclin E2 (Homo sapiens, UniProt P24941). Briefly: CDK2/CyclinE2 Enzymatic Activity Assay (TR-FRET). It counts as biochemical. The following applies: CDK2/CyclinE2 1 nM, ATP 1 mM, read-out: CDK2_El IC50. The method, then: CDK2/CyclinE2 Enzymatic Activity Assay
The inhibitory activity of compounds was evaluated in vitro using TR-FRET assay with white 384-well low volume microplate (Greiner Bio-One). CDK2/Cyclin E2 catalyzed phosphorylation of peptide in the presence and absence of compounds was measured and used in IC50 determination. Recombinant protein complex CDK2/Cyclin E2, expressed from insect cell, was purchased from ProQinase. Testing compounds were dissolved in DMSO at 1 mM and tested in 9-dose IC50 mode. The reaction mixture was prepared by mixing CDK2/CyclinE2 (1 nM final), ULight-4E-BP1 (50 nM final, Perkinelmer, TRF0128-D), and ATP (1 mM final) in assay buffer (20 mM of HEPES pH 7.4, 1 mM of EGTA, 0.05% BSA, 0.005% Tween 20, and 1 mM TCEP). The compound of interest in DMSO was added to each well in 3-fold serial dilution by dispenser (TECAN D300E) to make a 9.9 μL of reaction mixture. After 20 minutes preincubation at room temperature, 0.1 μL MgCl2 (10 mM final) was added to initiate the reaction. Following a 45 minute incubation at 37° C., the reaction was stopped by addition of 2 μL of quenching buffer consisting of Lance detection buffer (Perkinelmer CR97-100C), LANCE Ultra Europium-anti-P-4E-BP1 (Perkinelmer, TRF0216-D), EDTA, and incubate at room temperature for additional 60 minutes in the dark. The reaction signal was measured by Envision multimode plate reader (PerkinElmer, 2102-0010). IC50 values were determined by fitting the data to the standard 4 parameters with Hill Slope using GraphPad Prism software.

T1 sequence (P11802 whole entry): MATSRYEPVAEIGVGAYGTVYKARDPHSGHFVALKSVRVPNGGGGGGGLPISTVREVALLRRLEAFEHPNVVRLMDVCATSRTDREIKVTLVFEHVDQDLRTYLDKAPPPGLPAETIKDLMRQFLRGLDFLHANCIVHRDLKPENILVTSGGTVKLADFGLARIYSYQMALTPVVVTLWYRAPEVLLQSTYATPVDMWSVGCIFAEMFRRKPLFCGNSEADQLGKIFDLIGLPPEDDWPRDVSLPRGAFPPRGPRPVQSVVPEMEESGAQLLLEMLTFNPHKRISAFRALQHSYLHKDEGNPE
T1 sequence (P24385 whole entry partner): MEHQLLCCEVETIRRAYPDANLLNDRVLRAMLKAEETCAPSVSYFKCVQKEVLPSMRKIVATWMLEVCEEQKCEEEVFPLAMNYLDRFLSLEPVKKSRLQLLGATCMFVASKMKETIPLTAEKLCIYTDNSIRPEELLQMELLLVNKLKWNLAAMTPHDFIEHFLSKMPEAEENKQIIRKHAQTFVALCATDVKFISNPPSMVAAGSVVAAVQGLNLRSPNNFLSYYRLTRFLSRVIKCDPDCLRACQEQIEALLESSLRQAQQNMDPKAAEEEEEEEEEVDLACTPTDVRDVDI

`CC(C)C12CCOCCN1C(=O)c1cc(-c3nc(NC4CCN(S(C)(=O)=O)CC4)ncc3C(F)(F)F)sc12` (stereo not drawn) [Example 10, 10a-Isopropyl-2-(2-((1-(methylsulfonyl)piperidin-4-yl)amino)-5-(trifluoro-methyl)pyrimidin-4-yl)-6,7,10,10a-tetrahydrothieno[2′,3′:3,4]pyrrolo[1,2-d][1,4]oxazepin-4(9H)-one]: the results for the IC50 in experiment [1], in experiment [2] and in experiment [3] were ≤ 100 nM, 100 to 500 nM and ≤ 100 nM, respectively.

For the compound `CCC12CC(O)CN1C(=O)c1cc(-c3nc(NC4CCN(S(=O)(=O)c5cnn(C)c5)CC4)ncc3C(F)(F)F)sc12` (stereo not drawn) [Example 36, 8a-Ethyl-7-hydroxy-2-(2-((1-((1-methyl-1H-pyrazol-4-yl)sulfonyl)piperidin-4-yl)amino)-5-(trifluoromethyl)pyrimidin-4-yl)-6,7,8,8a-tetrahydro-4H-thieno[2,3-a]pyrrolizin-4-one], the IC50 in experiment [1], in experiment [2] and in experiment [3] was ≤ 100 nM each time.

Turning to `CCC12CCCN1C(=O)c1cc(-c3nc(NC4CCN(S(C)(=O)=O)CC4)ncc3Cl)sc12` (stereo not drawn) [Example 27, 2-(5-Chloro-2-((1-(methylsulfonyl)piperidin-4-yl)amino)pyrimidin-4-yl)-8a-ethyl-6,7,8,8a-tetrahydro-4H-thieno[2,3-a]pyrrolizin-4-one], the IC50 in experiment [1], in experiment [2] and in experiment [3] was ≤ 100 nM in each case.

`CS(=O)(=O)N1CCC(Nc2ncc(C(F)(F)F)c(-c3cc4c(s3)C3(C5CC(O)C5)CCCN3C4=O)n2)CC1` (stereo not drawn) [Example 25, 8a-(3-Hydroxycyclobutyl)-2-(2-((1-(methylsulfonyl)piperidin-4-yl)amino)-5-(trifluoromethyl)pyrimidin-4-yl)-6,7,8,8a-tetrahydro-4H-thieno[2,3-a]pyrrolizin-4-one]: the IC50 in experiment [1], in experiment [2] and in experiment [3] was ≤ 100 nM in each case.

Turning to `CCC12CC(O)CN1C(=O)c1cc(-c3nc(NC4CCN(S(C)(=O)=O)CC4)ncc3C(F)(F)F)sc12` (stereo not drawn) [Example 33, 8a-Ethyl-7-hydroxy-2-(2-((1-(methylsulfonyl)piperidin-4-yl)amino)-5-(trifluoromethyl)pyrimidin-4-yl)-6,7,8,8a-tetrahydro-4H-thieno[2,3-a]pyrrolizin-4-one], the IC50 in experiment [1], in experiment [2] and in experiment [3] was ≤ 100 nM throughout.

As to `CCC12CCCN1C(=O)c1cc(-c3nc(NC4CCN(S(C)(=O)=O)CC4)ncc3C(F)(F)F)sc12` (stereo not drawn) [Example 14, 8a-Ethyl-2-[2-[(1-methylsulfonylpiperidin-4-yl)amino]-5-(trifluoromethyl)pyrimidin-4-yl]-7,8-dihydro-6H-thieno[2,3-a]pyrrolizin-4-one], the IC50 in experiment [1], in experiment [2] and in experiment [3] was ≤ 100 nM each time.

Consider `CS(=O)(=O)N1CCC(Nc2ncc(C(F)(F)F)c(-c3cc4c(s3)C3(C5CC(F)C5)CCCN3C4=O)n2)CC1` (stereo not drawn) [Example 26, 8a-(3-Fluorocyclobutyl)-2-(2-((1-(methylsulfonyl)piperidin-4-yl)amino)-5-(trifluoromethyl)pyrimidin-4-yl)-6,7,8,8a-tetrahydro-4H-thieno[2,3-a]pyrrolizin-4-one], for which the IC50 is ≤ 100 nM in experiment [1], 100 to 500 nM in experiment [2] and ≤ 100 nM in experiment [3].

On to `CCC12CC(N)CN1C(=O)c1cc(-c3nc(N[C@H]4CCN(S(=O)(=O)c5cnn(C)c5)C[C@H]4C)ncc3C(F)(F)F)sc12` (stereo partly drawn) [Example 46, 7-Amino-8a-ethyl-2-(2-(((3R,4S)-3-methyl-1-((1-methyl-1H-pyrazol-4-yl)sulfonyl)piperidin-4-yl)amino)-5-(trifluoromethyl)pyrimidin-4-yl)-6,7,8,8a-tetrahydro-4H-thieno[2,3-a]pyrrolizin-4-one], for which the IC50 in experiment [1], in experiment [2] and in experiment [3] was ≤ 100 nM each time.

Consider `CC12CCCN1C(=O)c1cc(-c3nc(NC4CCN(S(C)(=O)=O)CC4)ncc3C(F)(F)F)sc12` (stereo not drawn) [Example 20, 8a-Methyl-2-(2-((1-(methylsulfonyl)piperidin-4-yl)amino)-5-(trifluoromethyl)pyrimidin-4-yl)-6,7,8,8a-tetrahydro-4H-thieno[2,3-a]pyrrolizin-4-one], for which the IC50 in experiment [1], in experiment [2] and in experiment [3] was ≤ 100 nM each time.

On to `CCC12CCCN1C(=O)c1cc(-c3nc(NC4CCN(S(C)(=O)=O)CC4)ncc3F)sc12` (stereo not drawn) [Example 15, 8a-Ethyl-2-[5-fluoro-2-[(1-methylsulfonylpiperidin-4-yl)amino]pyrimidin-4-yl]-7,8-dihydro-6H-thieno[2,3-a]pyrrolizin-4-one], for which the IC50 in experiment [1], in experiment [2] and in experiment [3] was ≤ 100 nM each time.

With `CS(=O)(=O)N1CCC(Nc2ncc(C(F)(F)F)c(-c3cc4c(s3)C3(CF)CCCN3C4=O)n2)CC1` (stereo not drawn) [Example 18, 8a-(Fluoromethyl)-2-(2-((1-(methylsulfonyl)piperidin-4-yl)amino)-5-(trifluoromethyl)pyrimidin-4-yl)-6,7,8,8a-tetrahydro-4H-thieno[2,3-a]pyrrolizin-4-one], the IC50 in experiment [1] was ≤ 100 nM; in experiment [2] it was 100 to 500 nM; in experiment [3] it was ≤ 100 nM.

With `[2H]C([2H])([2H])NC1CN2C(=O)c3cc(-c4nc(NC5CCN(S(C)(=O)=O)CC5)ncc4C(F)(F)F)sc3C2(CC)C1` (stereo not drawn) [Example 42, 8a-Ethyl-7-((methyl-d3)amino)-2-(2-((1-(methylsulfonyl)piperidin-4-yl)amino)-5-(trifluoromethyl)pyrimidin-4-yl)-6,7,8,8a-tetrahydro-4H-thieno[2,3-a]pyrrolizin-4-one], the IC50 in experiment [1], in experiment [2] and in experiment [3] was ≤ 100 nM each time.

On to `CCC12CC(NC)CN1C(=O)c1cc(-c3nc(N[C@H]4CCN(S(C)(=O)=O)C[C@H]4C)ncc3C(F)(F)F)sc12` (stereo partly drawn) [Example 43, 8a-Ethyl-2-(2-(((3R,4S)-3-methyl-1-(methylsulfonyl)piperidin-4-yl)amino)-5-(trifluoromethyl)pyrimidin-4-yl)-7-(methylamino)-6,7,8,8a-tetrahydro-4H-thieno[2,3-a]pyrrolizin-4-one], for which the IC50 in experiment [1] is ≤ 100 nM; in experiment [2], 100 to 500 nM; in experiment [3], ≤ 100 nM.
